The source of these data is PMC7228089, “Odiparcil, a potential glycosaminoglycans clearance therapy in mucopolysaccharidosis VI—Evidence from in vitro and in vivo models” (PLoS ONE, 2020).

For data set [1], the system named is Arsb^- mice. As to the kind of experiment: Sulphated GAG accumulation in liver and kidney (Alcian Blue staining, Blyscan). Format: in vivo. As to conditions: for Liver sulphated GAG accumulation / Kidney sulphated GAG accumulation: Arsb^- mice; for Liver sulphated GAG accumulation: 6 months of treatment; for Kidney sulphated GAG accumulation: Alcian Blue. Here is the method: (§1) MPS VI model nonsense mutation Arsb^m1J homozygous mice (referred to as Arsb^- throughout the manuscript) and WT littermates were obtained from internal breeding of stock mice derived from The Jackson Laboratory strain No: 005598 (C57BL/6J-Arsb^m1J/GrsrJ). Genotyping and Arsb^m1J mutation identification were performed according to the protocol provided by The Jackson Laboratory. Each study group contained mix of male and female: 6 animals in disease progression studies and between 8 and 12 animals in odiparcil treatment studies.
Housing conditions. The animals were housed in groups of 3–10 (for mice) or 2 (for rats) in polypropylene cages (floor area = 1032 cm^2) under standard conditions: room temperature (22 ± 2°C), hygrometry (55 ± 10%), light/dark cycle (12h/12h), air replacement (15–20 volumes/hour), water and food ad libitum. Mice were allowed to habituate for at least 5 days prior to experimentation. Mice were numbered by marking their tail using indelible markers. For the early disease model (treatment starting in juvenile, 4 weeks old mice), odiparcil administration in the weeks 1 to 6 was done per gavage with odiparcil in Methylcellulose 400 cps 1% / Poloxamer 188 0.1% / Water, freshly prepared every week. Later on, administration was per chow diet with odiparcil mixed before diet granulation. For advanced disease treatment (treatment starting in adult, 3 months old mice), administration was per diet from the beginning of the study. WT and Arsb^- animals were randomized into groups: control and two doses of odiparcil: 1.5 g odiparcil per kg of diet and 4.5 g odiparcil per kg of diet. For urine collection, animals were placed for 24 hours in standard metabolism cages (2 or 3 animals per cage). At the end of the studies, animals were anesthetized (O2 / isoflurane), blood for smears was collected from ocular sinus and after euthanasia samples from liver and kidney (snap frozen for total GAG analysis by Blyscan method or fixed for histology, see below) and from trachea and knee from the left hind leg were collected.
Total sulphated GAG in cell culture media were determined colorimetrically by DMMB method (described in [31] adapted for cell culture media). Total sulphated GAG in snap frozen liver and kidney samples and urine were measured using Blyscan assay from Biocolor Company (UK) following manufacturer’s instructions. Urine samples were processed directly according to the kit manual. For GAG in tissues quantification, individual pieces (approximately 50 mg) were removed from the frozen samples (liver and kidney), weighed and digested in 1 mL papain solution prepared according to the Blyscan kit protocol. After the extraction, 20 μL from each reaction were used for sulphated GAG determination following the Blyscan kit protocol. The obtained values for sulphated GAG were adjusted to the volume of papain reaction and were normalized to the weight of the tissue used or, in the case of urine samples, to creatinine levels.
GAG tissue accumulation in liver and kidney sections was estimated based on Alcian Blue staining performed at low pH (pH 1), at which the dye stained predominantly sulphated GAG. Two slides at different levels per tissue block were used. Staining with 1% Alcian Blue in hydrochloric acid was performed on automated Leica Autostainer. […] Then for each proof image, an RGB index was calculated that was the mean of Red + Green + Blue intensities of all non-black pixels. […]

Data set [2] concerns Bovine aortic endothelial cells. As to the kind of experiment: Secretion of [35S]-labelled sulphated GAG into culture medium of BAE cells. Particulars: for Mean CSGAG (%) of total secreted sulphated GAG / Mean HSGAG (%) of total secreted sulphated GAG: BAE cell culture media; for Mean CSGAG (%) of total secreted sulphated GAG: CSase ABC degradation; for Mean HSGAG (%) of total secreted sulphated GAG: Heparitinase II degradation; for Maximum stimulation of HSGAG secretion (fold over the base level): at 10 μM odiparcil. Format: cell-based. On the procedure:
GAG secreted into cell culture supernatant were analysed in Bovine aortic endothelial cells (ECACC 92010601), cultured in 6-well plates and incubated for 24 h in the presence of [^35S] sodium sulphate ([…]; 0.1% final concentration of DMSO). The culture supernatants were recovered and the unincorporated [^35S] was then removed by gel filtration on Sephadex G25 columns, the GAG being eluted in the column exclusion fraction (V0). A solution of cetylpyridinium chloride (0.1% final concentration) was added to the eluent in order to precipitate the GAG for 24 h at room temperature. The samples were then centrifuged and the supernatant was removed. The precipitate obtained was re-suspended in 2 M magnesium chloride and the GAG were precipitated with 5 volumes of 95% ethanol. After centrifugation, the alcoholic precipitates were re-suspended in 0.9% sodium chloride and then the radioactivity was measured.
In order to sort the GAG produced in the supernatants from cells in culture, the re-suspended alcoholic precipitates were treated with chondroitinase ABC (Proteus vulgaris) in a proportion of 0.5 mU/μL, for 3 h at 37°C. After inactivation of the enzyme for 3 min at 100°C, the undigested GAG were precipitated with 5 volumes of 95% ethanol, overnight at 4°C. After centrifugation, the alcoholic precipitates were re-suspended in 0.9% sodium chloride and then the radioactivity was measured on an aliquot fraction after addition of scintillation fluid in counting vials. GAG of heparan sulphate type were treated with heparinase II (Flavobacterium heparinum) in a proportion of 4 mU/μl, for 12 h at 30°C. After inactivation of the enzyme for 3 min at 100°C, the undigested GAG were precipitated with 5 volumes of 95% ethanol, overnight at 4°C. After centrifugation, the alcoholic precipitates were re-suspended in 0.9% sodium chloride and then the radioactivity was measured on an aliquot fraction after addition of scintillation fluid in counting vials.

For data set [3] the following is noted: more than 30 clinical trials, total of 1900 subjects; earlier development as antithrombotic agent; cited from earlier work.
In data set [4] the test system is Arsb^- mice. As to the kind of experiment: Cartilage thickness in trachea and distal femoral growth plate (histology). Format: in vivo. Here is the method:
as §1
Housing conditions. The animals were housed in groups of 3–10 (for mice) or 2 (for rats) in polypropylene cages (floor area = 1032 cm^2) under standard conditions: room temperature (22 ± 2°C), hygrometry (55 ± 10%), light/dark cycle (12h/12h), air replacement (15–20 volumes/hour), water and food ad libitum. Mice were allowed to habituate for at least 5 days prior to experimentation. Mice were numbered by marking their tail using indelible markers. For the early disease model (treatment starting in juvenile, 4 weeks old mice), odiparcil administration in the weeks 1 to 6 was done per gavage with odiparcil in Methylcellulose 400 cps 1% / Poloxamer 188 0.1% / Water, freshly prepared every week. Later on, administration was per chow diet with odiparcil mixed before diet granulation. […]

Setting [5] is: BAE cells, 24 h, [35S] sulphate.

As for `Cc1cc(=O)oc2cc(O[C@@H]3SC[C@@H](O)[C@H](O)[C@H]3O)ccc12` [Odiparcil, 4-methyl-7-(5-thio-β-D-xylopyranosyloxy)-2 H-chromen-2-one], the “Liver sulphated GAG accumulation” value is recorded as “significantly reduced liver GAG at both doses” with Arsb^- mice [1] (early disease model, 1.5 and 4.5 g/kg diet); “significantly reduced liver GAG” with Arsb^- mice [1] (established disease model, highest dose (4.5 g/kg diet)). In addition, the “Kidney sulphated GAG accumulation” value in the data set with Arsb^- mice [1] (early disease model, 6 months, effect not significant) was “reduced kidney GAG”; with Arsb^- mice [1] (established disease model, 6 months), “significant only in the latter model”. For the same compound, in the data set with Arsb^- mice [1] (wild type mice, two doses of odiparcil, 6 months), the “Liver and kidney GAG levels in wild type animals” value was “no significant effects on GAG levels”. In addition, the “Mean CSGAG (%) of total secreted sulphated GAG” value in data set [2] (odiparcil 0.1 µM) came to 78.5%; in data set [2] (odiparcil 0.3 µM), 83.5%; in data set [2] (odiparcil 1 µM), 83.9%; in data set [2] (odiparcil 3 µM), 82.5%; in data set [2] (odiparcil 10 µM) it was 73.5%. For the same compound, the “Mean HSGAG (%) of total secreted sulphated GAG” value stood at 34.5% in data set [2] (odiparcil 0.1 µM); 28.0% in data set [2] (odiparcil 0.3 µM); 16.0% in data set [2] (odiparcil 1 µM); 15.0% in data set [2] (odiparcil 3 µM); 19.5% in data set [2] (odiparcil 10 µM). Further, the “Maximum CS-like GAGs (fold stimulation over the base level)” value in data set [2] (setting [5]) turned out to be 12.2 fold. Moreover, in data set [2] (BAE cells, 24 h, [35S] sulphate, achieved with 3 μM odiparcil), the “Maximum stimulation of total GAG secretion (fold over the base level)” value is 10.7 fold. Besides, the “Maximum stimulation of HSGAG secretion (fold over the base level)” value amounted to 4.92 fold in data set [2] (setting [5]) and 4.9 fold in data set [2] (BAE cells, 24 h, [35S] sulphate, listed as odiparcil). For the same compound, the “Safety and tolerability in clinical trials” value in data set [3] is “good safety and tolerability”. For the same compound, in the data set on Arsb^- mice [4] (Arsb^- mice, early and established disease models, 6 months of treatment), the “Cartilage thickening in trachea and distal femoral growth plate” value is on record as “dose-dependent reduction of cartilage thickening”. For the same compound, the “Cartilage thickness in wild type animals” value with Arsb^- mice [4] (wild type mice, early disease treatment model, only distal femoral growth plate, significant only for the high dose) was “Some decrease in the thickness of cartilage”.
